Where “and” joins values, the source holds several entries; their conditions need not be identical. Identical values can stand only once.
Experiments:
weaned pigs = experiment: Growth promotion test of weaned pigs with additives in creep feed; type: in vivo, pig (Duroc×Landrace×Large White piglets); conditions: for Average daily weight gain / Diarrhea rate / Feed conversion ratio: 10 days
Excerpt: 140 weaned Duroc×Landrace×Large White piglets aged 28 days with similar body weight and further having an average body weight of 7.61 kg were divided into 14 groups, each with 10 pigs. After adding different concentrations of p-methyl benzoic acid or its calcium, sodium, potassium or zinc salt prepared by the embodiments disclosed herein into the conventional creep feed (excluding acidifying agent) of each group, the pigs were free feeding and drinking during the test period of 10 days, then to collect statistics of the weight gain and the feed conversion ratio as well as the diarrhea rate of test pig in each test group.

broilers = experiment: Growth promotion test of broilers with acidifying agents in complete formula feed; type: in vivo, broilers (chicken); conditions: for Effect on daily gain (in words) / Effect on feed conversion ratio (in words): 2000 ppm; for Average daily weight gain / Feed conversion ratio: 2000 ppm in complete formula feed, 21 days
Experimental: 300 broilers (female seedlings) aged 1 day were divided into 6 groups in accordance with Table 6, and each group with 50 broilers. Acidifying agent with different type or concentration was added to the complete formula feed for chickens without any acidifying agents in each group, the broilers were free feeding and drinking during the test period of 21 days and then to collect statistics of the weight gain and the feed conversion ratio of test broiler in each test group.

grass carps = experiment: Growth promotion test in grass carps with additives in feed; type: in vivo, grass carp; conditions: for Feed conversion ratio (FCR) / Final weight / Survival rate SR / Weight gain rate: 3000 ppm in feed, 8 weeks
Experimental: The test was performed on an aquaculture farm of Guangzhou Insighter Biotechnology CO., LTD, and the test fish is grass carp. Healthy and lively grass carps with the same species and sizes were fed in a large cage for 4 weeks, thereafter used for formal test, and the test system is a small floating cage. The small floating cage and temporary cages were placed in a 3500 square meter pond of the test field. Water depth of the pond was close to 1.5m, and the pond water is fully aerated. When testing, 160 grass carps starved for 1 day were randomly divided into 4 groups, each group with 4 replicates, and each replicate with 10 fish. After the whole weighing, the samples were randomly placed in 16 cages and fed with different test diets. The test diets were self-formulated in accordance with Table 5, and the basic diets of different test groups were adding different growth promoters respectively. The test adopted artificial feeding with food restriction, and the feed intake was adjusted once a week, the feeding levels of two groups were completely consistent (metered by the initial weight), the fish in each group is fed two times in one day (7:30 and 15:00). The test lasted for 8 weeks.

meat-type ducks = experiment: Feeding test of meat-type ducks with additives in basic diet; type: in vivo, Cherry Valley ducks; conditions: for Average daily weight gain / Average feed conversion ratio / Survival rate: 2000 ppm in basic diet, 30 days
Excerpt: 300 Cherry Valley ducks aged 1 day were divided into 6 groups with 50 ducks per group. After adding different concentrations of p-methyl benzoic acid or benzoic acid into the same basic diet (without antibiotics) of each group, the Cherry Valley ducks were free feeding and drinking, and continued feeding for 30 days, then to collect statistics of the production performance and the survival rate of test ducks, the test grouping and metered concentrations are shown in Table 3, and the results of the production performance are shown in Table 4.

SMILES	Average daily weight gain (weaned pigs; 2000 ppm in creep feed)	Diarrhea rate (weaned pigs; 2000 ppm in creep feed)	Feed conversion ratio (weaned pigs; 2000 ppm in creep feed)	Effect on diarrhea rate of test pigs (in words) (weaned pigs; 10000 ppm to 20000 ppm)	Improvement of production performance (in words) (weaned pigs; 10000 ppm to 20000 ppm)	Effect on daily gain (in words) (broilers)	Effect on feed conversion ratio (in words) (broilers)	Average daily weight gain (broilers)	Feed conversion ratio (broilers)	Effect on diarrhea rate of test pigs (in words) (weaned pigs; 2000 ppm)	Improvement of production performance (in words) (weaned pigs; 2000 ppm)	Feed conversion ratio (FCR) (grass carps)	Final weight (grass carps)	Survival rate SR (grass carps)	Weight gain rate (grass carps)	Survival rate (meat-type ducks)	further results
Cc1ccc(C(=O)[O-])cc1.[Na+] [sodium p-methyl benzoate]	203.7 g	17.0%	1.55	significantly reduce the diarrhea rate	significant dose effect	significantly increase the daily gain	improve the feed conversion ratio	24.3 g	1.79								
Cc1ccc(C(=O)[O-])cc1.Cc1ccc(C(=O)[O-])cc1.[Ca+2] [calcium p-methyl benzoate]	203.6 g	12.0%	1.54	significantly reduce the diarrhea rate	significant dose effect					significantly reduce the diarrhea rate	significant dose effect	1.40	612 g	100%	157%		Growth promotion versus blank control group (in words) (grass carps): obvious effects on growth promotion
O=CO [formic acid, reference compound]	173.4 g	25.0%	1.65													93%	Average daily weight gain (meat-type ducks): 58.6; Average feed conversion ratio (meat-type ducks): 2.11
C/C=C/C=C/C(=O)O [sorbic acid]						no such effects	no such effects	19.9 g	1.89								
O=C(O)c1ccccc1 [benzoic acid]	192.3 g and 193.5 g	22.0% and 23.0%	1.66 and 1.65									1.46	585 g	100%	147%	92%	Rate of anti-diarrhea as compared to phosphoric acid or citric acid (in words) (weaned pigs; equal concentration (2000 ppm)): increased slightly; Average daily weight gain (meat-type ducks): 59.7; Average feed conversion ratio (meat-type ducks): 2.10
O=P(O)(O)O [phosphoric acid, reference compound]	175.3 g	27.0%	1.66							no such effects	no such effects						
O=C(O)CC(O)(CC(=O)O)C(=O)O [citric acid, reference compound]	181.3 g and 180.4 g	31.0% and 26.0%	1.67 and 1.68			no such effects	no such effects	19.8 g	1.88	no such effects	no such effects	1.47	582 g	100%	147%		
Cc1ccc(C(=O)[O-])cc1.[K+] [potassium p-methyl benzoate]	205.8 g	15.0%	1.58	significantly reduce the diarrhea rate	significant dose effect												
Cc1ccc(C(=O)[O-])cc1.Cc1ccc(C(=O)[O-])cc1.[Zn+2] [zinc p-methyl benzoate]	201.3 g	15.0%	1.60														
Cc1ccc(C(=O)O)cc1 [p-methyl benzoic acid]				significantly reduce the diarrhea rate	significant dose effect			24.5 g	1.76	significantly reduce the diarrhea rate	significant dose effect					100%	Average daily weight gain (weaned pigs; 10000 ppm in creep feed): 215.8 g; Diarrhea rate (weaned pigs; 10000 ppm in creep feed): 11.0%; Feed conversion ratio (weaned pigs; 10000 ppm in creep feed): 1.51; Average daily weight gain (weaned pigs; 20000 ppm in creep feed): 221.4 g; Diarrhea rate (weaned pigs; 20000 ppm in creep feed): 9.0%; Feed conversion ratio (weaned pigs; 20000 ppm in creep feed): 1.47; Production performance and survival rate (in words) (meat-type ducks): greatly improved

Source: patent US20170332666A1, “APPLICATION OF P-METHYL BENZOIC ACID OR SALTS THEREOF AS ADDITIVES FOR ANIMAL FEED” (priority 2015, published 2017)
